Consider 20 compounds from patent US6177437A, “Inhibitors of Herpes Simplex virus uracil-DNA glycosylase” (University of Massachusetts Medical Center, priority 1999, dated 2001).

Series [1] concerns the target T1, HSV1 uracil-DNA glycosylase (HSV1 UDG) (Human herpesvirus 1, UniProt P10186).
T1 construct: made in house
The series is described as follows: Inhibition of HSV1 uracil-DNA glycosylase, [3H]uracil release from [3H]dUMP-containing DNA. It counts as biochemical. As to conditions: for Activity against viral UDG: at 200 μM; for Potency against HSV1 UDG relative to parent compound: hexAU derivatives vs 4, octAU derivatives vs 5. As for the experimental part: (§1) Compounds 2-8 were screened against purified HSV1 and human (HeLa) uracil-DNA glycosylases which were isolated by conventional enzyme purification protocols^1. Assays for inhibition by the compounds were conducted as described in the literature^1 by measuring [^3 H]uracil release from [^3 H]dUMP-containing DNA, in the presence of varying concentrations of test compounds. Control assays contained the same concentration of diluent, dimethylsulfoxide. IC50 s (the concentration of compound that causes half-maximal inhibition of [^3 H]uracil release from [^3 H]dUMP-containing DNA) for each of the compounds were calculated.
(§2) a. Isolation and assay of uracil-DNA glycosylases. The viral and human (HeLa) uracil-DNA glycosylases are isolated with conventional enzyme purification protocols (Focher et al., 1993). Both long and short forms of the HSV1 enzyme have been cloned and expressed in E. Coli (Argnani et al., 1995), and have essentially identical enzymatic properties and inhibitor sensitivities. Assays for new inhibitors of viral and human UDG are done as described (Focher et al., 1993) by measuring [^3 H]uracil release from [^3 H]dUMP-DNA. Mechanism studies involve classical variable substrate assays to determine if inhibition is competitive with substrate or product.

For series [2], the target named is T2, human (HeLa) uracil-DNA glycosylase (Homo sapiens, UniProt P13051).
T2 construct: The viral and human (HeLa) uracil-DNA glycosylases are isolated with conventional enzyme purification protocols; endogenous in cells; host or cells: HeLa
T2 sequence (P13051 whole entry): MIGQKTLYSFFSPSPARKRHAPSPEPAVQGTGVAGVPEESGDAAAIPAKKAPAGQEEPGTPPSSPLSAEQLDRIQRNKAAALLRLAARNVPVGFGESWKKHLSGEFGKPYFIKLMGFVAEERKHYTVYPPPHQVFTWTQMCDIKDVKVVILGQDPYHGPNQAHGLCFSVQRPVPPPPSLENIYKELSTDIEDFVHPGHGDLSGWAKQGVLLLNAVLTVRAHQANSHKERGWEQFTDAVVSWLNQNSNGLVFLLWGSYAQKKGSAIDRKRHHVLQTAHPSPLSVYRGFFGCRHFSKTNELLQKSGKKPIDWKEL
The series is described as follows: Inhibition of human (HeLa) uracil-DNA glycosylase, [3H]uracil release from [3H]dUMP-containing DNA. The conditions noted are these: Table 3; read-out: IC50 Human-UDG. It counts as biochemical. The method, then: as §1, §2

Series [3] addresses T2, human (HeLa) uracil-DNA glycosylase. As to conditions: cited from earlier work; for IC50: compounds 4 and 5, from Focher et al., 1993, read-out: IC50 Human-UDG.
Series [4] addresses T1, HSV1 uracil-DNA glycosylase (HSV1 UDG). The conditions noted are these: cited from earlier work.
Series [5] in a line: Solubility observations (assay medium, water). It counts as physicochemical.
Where [6] appears, read: Table 3, read-out: IC50 HSV1-UDG.
Where [7] appears, read: Table 2, read-out: IC50, experimental value.
Where [8] appears, read: Table 1, from literature (footnote a), read-out: IC50.
Where [9] appears, read: compounds 4 and 5, from Focher et al., 1993, read-out: IC50 HSV1-UDG.

Structures are written as SMILES. Read-outs that look alike come from different tables or passages of the source.

T1 sequence (P10186 whole entry): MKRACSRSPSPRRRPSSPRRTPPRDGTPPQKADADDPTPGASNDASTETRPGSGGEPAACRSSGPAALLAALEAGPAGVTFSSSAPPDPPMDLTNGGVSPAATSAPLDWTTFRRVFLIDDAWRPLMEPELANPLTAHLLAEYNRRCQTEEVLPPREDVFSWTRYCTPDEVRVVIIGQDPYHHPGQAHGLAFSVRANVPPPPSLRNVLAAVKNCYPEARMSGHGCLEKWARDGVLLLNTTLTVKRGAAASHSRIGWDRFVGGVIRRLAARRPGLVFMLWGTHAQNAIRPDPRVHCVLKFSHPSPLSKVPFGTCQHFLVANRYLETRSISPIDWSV

As to `CCCCCCc1ccc(Nc2cc(=O)[nH]c(=O)n2CCOC)cc1` [Compound 19, 1-(2-Methoxyethyl)-6-(4-hexylanilino)uracil], the IC50 in series [1] (setting [6]) is > 100 µM.

On to `CCCCCCCCCCc1ccc(Nc2cc(O)nc(O)n2)cc1` [Compound 6, 6-(4-Decylanilino)uracil], for which the figures for the IC50 in series [2] and in series [1] (setting [7]) were > 200 µM and 35 µM, respectively.

On to `CCCCCCc1ccc(Nc2cc(=O)[nH]c(=O)n2C)cc1` [Compound 16, 1-Methyl-6-(4-hexylanilino)uracil], for which the IC50 in series [2] was > 200 µM.

Regarding `O=c1cc[nH]c(=O)[nH]1` [uracil], the “Mode of inhibition of human UDG” value in series [3] (reported (Griffiths 1995)) was “non-competitive”.

Take `CCc1ccc(Nc2cc(O)nc(O)n2)cc1` [Compound 2]: the half-inhibitory concentration (IC50) in series [4] (setting [8]) was 500 µM.

With `CCCCCCc1ccc(Nc2cc(=O)[nH]c(=O)n2CCC)cc1` [Compound 18, 1-Propyl-6-(4-hexylanilino)uracil], the IC50 in series [2] is > 200 µM.

With `CCCCCCc1ccc(Nc2[nH]c(=O)[nH]c(=O)c2C)cc1` [(4-n-hexylanilino)thymine, 6-(4-Hexylanilino)thymine], in series [1], the “Activity against viral UDG” value is “inactive”.

In the case of `CCCCCCc1ccc(Nc2cc(=O)n(CC)c(=O)[nH]2)cc1` [3-ethyl-6-(4-n-hexylanilino)uracil], the “Activity against viral UDG” value in series [1] was “inactive”.

For the compound `CCCCCCCCc1ccc(Nc2cc(=O)[nH]c(=O)n2CCO)cc1` [Compound 25, 1-(2-Hydroxyethyl)-6-(4-octylanilino)uracil], in series [1] (setting [6]), the IC50 worked out at 10 µM. Further, the “Potency against HSV1 UDG relative to parent compound” value in series [1] was “as a potent an inhibitor as 5”.

As for `CCCCCCc1ccc(Nc2cc(=O)[nH]c(=O)n2CC)cc1` [Compound 17, 1-Ethyl-6-(4-hexylanilino)uracil], in series [2], the IC50 is > 200 µM.

Consider `CCCCCCCCc1ccc(Nc2cc(=O)[nH]c(=O)n2CCOC)cc1` [Compound 24, 1-(2-Methoxyethyl)-6-(4-octylanilino)uracil], for which, in series [1] (setting [6]), the IC50 is 15 µM. Besides, the “Potency against HSV1 UDG relative to parent compound” value in series [1] is recorded as “nearly as potent”.

Consider `CCCCCCCCOc1ccc(Nc2cc(O)nc(O)n2)cc1` [Compound 8, 6-(4-Octyloxyanilino)uracil], for which the IC50 in series [1] (setting [7]) was 25 µM.

In the case of `CCCCCCCCc1ccc(Oc2cc(=O)[nH]c(=O)[nH]2)cc1` [Compound 9, 6-(4-Octylphenoxy)uracil], the concentration for half-maximal inhibition (IC50) in series [2] was > 300 µM; in series [1] (read-out: IC50, experimental value) it was 150 µM.

Consider `CCCCCCCCc1ccc(Nc2cc(=O)[nH]c(=O)[nH]2)cc1` [Compound 5, 6-(4-n-octylanilino)uracil], for which the values for the IC50 in series [4] (setting [8]), in series [4] (setting [9]) and in series [3] were 8 µM, 8 µM and > 300 µM, respectively. Further, in series [5], the “Water solubility” value is listed as “poor water solubility”. In addition, the “Mode of inhibition of HSV1 UDG” value in series [1] was “competitive with DNA”.

Turning to `CCCCCCc1ccc(Nc2cc(=O)[nH]c(=O)n2CCO)cc1` [Compound 21, 1-(2-Hydroxyethyl)-6-(4-hexylanilino)uracil], the IC50 in series [1] (setting [6]) is 20 µM. Also, in series [1], the “Potency against HSV1 UDG relative to parent compound” value is given as “equipotent with 4”.

As to `CCCCCCc1ccc(Nc2cc(=O)[nH]c(=O)n2CCCO)cc1` [Compound 22, 1-(3-Hydroxypropyl)-6-(4-hexylanilino)uracil], the “Potency against HSV1 UDG, fold weaker than 4” value in series [1] was found to be 3 fold. In series [1] (read-out: IC50 HSV1-UDG), the IC50 was found to be 90 µM.

For `CCCCCCc1ccc(Nc2cc(O)nc(O)n2)cc1` [Compound 4, 6-(4-n-Hexylanilino)uracil], the figures for the IC50 in series [4] (setting [8]), in series [4] (setting [9]) and in series [3] were 30 µM, 30 µM and > 300 µM, respectively.

For the compound `CCCCCCOc1ccc(Nc2cc(O)nc(O)n2)cc1` [Compound 7, 6-(4-Hexyloxyanilino)uracil], the IC50 in series [1] (setting [7]) was 30 µM.

As to `Nc1cc(=O)[nH]c(=O)[nH]1` [6-Aminouracil, reference compound], in series [3] (reported (Caradonna et al, 1981)), the “Inhibition of human UDG” value is “inhibit weakly”. For the same compound, in series [1] (text b184, read-out: IC50 HSV1 UDG), the IC50 was found to be 1000 µM.

Turning to `CCCCCCc1ccc(Nc2cc(=O)[nH]c(=O)n2CCCOC)cc1` [Compound 20, 1-(3-Methoxypropyl)-6-(4-hexylanilino)uracil], the IC50 in series [1] (setting [6]) was > 100 µM.
